Laboratory results: ChEMBL document CHEMBL5331131, “Discovery of Acyl-Indole Derivatives as Pan-Serotype Dengue Virus NS4B Inhibitors” (J Med Chem, 2023)
≈ marks a conversion by molar mass, not a printed value.

Key:
[1] = Metabolic stability in human hepatocytes assessed as intrinsic clearance measured per million cells incubated upto 120 mins by MS analysis; assay type: ADME, cell-based, Hepatocyte; conditions: read-out: CLH
[2] = AUC last in Sprague-Dawley rat at 10 mg/kg, po measured upto 24 to 48 hrs by LC-MS/MS analysis; assay type: ADME, organism-based; set-up: time upper 48 hrs, dose 10 mg/kg, time lower 24 hrs, route po; conditions: in vivo
[3] = Oral bioavailability in CD-1 mouse at 1 mg/kg measured for 0.5 to 24 hrs by LC-MS/MS analysis; assay type: ADME, organism-based; conditions: in vivo, time 0.5-24 hrs
[4] = Cmax in CD-1 mouse at 3 mg/kg, po measured for 0.5 to 24 hrs by LC-MS/MS analysis; assay type: ADME, organism-based; set-up: time 0.5-24 hrs, dose 3 mg/kg, route po; conditions: in vivo
[5] = AUC last in CD-1 mouse at 10 mg/kg, po measured for 0.5 to 24 hrs by LC-MS/MS analysis; assay type: ADME, organism-based; set-up: dose 10 mg/kg, time 0.5-24 hrs, route po; conditions: in vivo
[6] = tested on: dengue virus type 2; assay: In vivo antiviral activity against DENV-2/RL infected in AG129 mouse assessed as viral load reduction administered at 1 to 30 mg/kg, po bid for 3 days; assay type: functional, organism-based; conditions: dose 1-30 mg/kg, time 3.0 day
[7] = Cmax in CD-1 mouse at 10 mg/kg, po measured for 0.5 to 24 hrs by LC-MS/MS analysis; assay type: ADME, organism-based; set-up: dose 10 mg/kg, time 0.5-24 hrs, route po; conditions: in vivo
[8] = Half life in CD-1 mouse at 2.5 mg/kg, iv measured by LC-MS/MS analysis; assay type: ADME, organism-based; conditions: in vivo
[9] = Microsomal stability in human liver microsomes assessed as intrinsic clearance preincubated for 5 mins followed by NADPH addition measured upto 60 mins by LC-MS/MS analysis; assay type: ADME, Microsome; conditions: time < 65 min, read-out: CLH
[10] = Clearance in CD-1 mouse at 2.5 mg/kg, iv measured for 0.12 to 24 hrs by LC-MS/MS analysis; assay type: ADME, organism-based; conditions: in vivo, time 0.12-24 hrs
[11] = Kinetic solubility of the compound in aqueous buffer at pH 7.4 measured after 4 hrs by UPLC/UV analysis; assay type: physicochemical; conditions: read-out: Kinetic_solubility
[12] = tested on: dengue virus type 1; assay: Antiviral activity against DENV-1 TC974#666 infected in african green monkey Vero cells incubated for 24 hrs measured after 3 days post infection; assay type: functional, organism-based; conditions: TC974#666, Vero
[13] = Microsomal stability in rat liver microsomes assessed as intrinsic clearance preincubated for 5 mins followed by NADPH addition measured upto 60 mins by LC-MS/MS analysis; assay type: ADME, Microsome; conditions: time < 65 min, read-out: CLH
[14] = Cmax in CD-1 mouse at 1 mg/kg, po measured for 0.5 to 24 hrs by LC-MS/MS analysis; assay type: ADME, organism-based; set-up: dose 1 mg/kg, time 0.5-24 hrs, route po; conditions: in vivo
[15] = Volume of distribution at steady state in CD-1 mouse at 2.5 mg/kg, iv measured for 0.12 to 24 hrs by LC-MS/MS analysis; assay type: ADME, organism-based; conditions: in vivo, time 0.12-24 hrs, read-out: Vdss
[16] = biological target: Voltage-gated inwardly rectifying potassium channel KCNH2 (Homo sapiens, UniProt Q12809); assay: Displacement of [3H]Dofetilide from human ERG; assay type: toxicity
[17] = Volume of distribution at steady state in Sprague-Dawley rat at 2.5 mg/kg, iv measured upto 24 hrs by LC-MS/MS analysis; assay type: ADME, organism-based; conditions: in vivo, read-out: Vdss
[18] = AUC last in CD-1 mouse at 3 mg/kg, po measured for 0.5 to 24 hrs by LC-MS/MS analysis; assay type: ADME, organism-based; set-up: time upper 24 hrs, time lower 0.5 hrs, dose 3 mg/kg, route po; conditions: in vivo
[19] = Oral bioavailability in CD-1 mouse at 10 mg/kg measured for 0.5 to 24 hrs by LC-MS/MS analysis; assay type: ADME, organism-based; conditions: in vivo, time 0.5-24 hrs
[20] = Cmax in Sprague-Dawley rat at 10 mg/kg, po measured upto 24 to 48 hrs by LC-MS/MS analysis; assay type: ADME, organism-based; set-up: time upper 48 hrs, dose 10 mg/kg, time lower 24 hrs, route po; conditions: in vivo
[21] = Microsomal stability in mouse liver microsomes assessed as intrinsic clearance preincubated for 5 mins followed by NADPH addition measured upto 60 mins by LC-MS/MS analysis; assay type: ADME, Microsome; conditions: time < 65 min, read-out: CLH
[22] = tested on: dengue virus type 2; assay: Antiviral activity against DENV-2 16681 infected in african green monkey Vero cells incubated for 24 hrs measured after 3 days post infection; assay type: functional, organism-based; conditions: Dengue virus, 16681, Vero
[23] = Half life in Sprague-Dawley rat at 2.5 mg/kg, iv measured by LC-MS/MS analysis; assay type: ADME, organism-based; conditions: in vivo
[24] = Oral bioavailability in Sprague-Dawley rat at 10 mg/kg measured upto 24 to 48 hrs by LC-MS/MS analysis; assay type: ADME, organism-based; conditions: in vivo, time 24-48 hrs
[25] = AUC last in CD-1 mouse at 1 mg/kg, po measured for 0.5 to 24 hrs by LC-MS/MS analysis; assay type: ADME, organism-based; set-up: dose 1 mg/kg, time 0.5-24 hrs, route po; conditions: in vivo
[26] = Oral bioavailability in CD-1 mouse at 3 mg/kg measured for 0.5 to 24 hrs by LC-MS/MS analysis; assay type: ADME, organism-based; conditions: in vivo, time 0.5-24 hrs
[27] = Clearance in Sprague-Dawley rat at 2.5 mg/kg, iv measured upto 24 hrs by LC-MS/MS analysis; assay type: ADME, organism-based; conditions: in vivo
[28] = tested on: dengue virus type 2; assay: In vivo antiviral activity against DENV-2/RL infected in AG129 mouse assessed as viral load reduction in plasma administered at 30 mg/kg, po bid for 3 days; assay type: functional; conditions: time 3 day
[29] = tested on: dengue virus type 3; assay: Antiviral activity against DENV-3 H87 infected in african green monkey Vero cells incubated for 24 hrs measured after 3 days post infection; assay type: functional, organism-based
[30] = tested on: dengue virus type 4; assay: Antiviral activity against DENV-4 H241 infected in african green monkey Vero cells incubated for 24 hrs measured after 3 days post infection; assay type: functional, organism-based
[31] = AUC last in CD-1 mouse at 30 mg/kg, po measured for 0.5 to 24 hrs by LC-MS/MS analysis; assay type: ADME, organism-based; set-up: time upper 24 hrs, time lower 0.5 hrs, dose 30 mg/kg, route po; conditions: in vivo
[32] = Cmax in CD-1 mouse at 30 mg/kg, po measured for 0.5 to 24 hrs by LC-MS/MS analysis; assay type: ADME, organism-based; set-up: time upper 24 hrs, dose 30 mg/kg, time lower 0.5 hrs, route po; conditions: in vivo
[33] = Oral bioavailability in CD-1 mouse at 30 mg/kg measured for 0.5 to 24 hrs by LC-MS/MS analysis; assay type: ADME, organism-based; conditions: in vivo, time 0.5-24 hrs

Chain of Voltage-gated inwardly rectifying potassium channel KCNH2 (Q12809 whole entry): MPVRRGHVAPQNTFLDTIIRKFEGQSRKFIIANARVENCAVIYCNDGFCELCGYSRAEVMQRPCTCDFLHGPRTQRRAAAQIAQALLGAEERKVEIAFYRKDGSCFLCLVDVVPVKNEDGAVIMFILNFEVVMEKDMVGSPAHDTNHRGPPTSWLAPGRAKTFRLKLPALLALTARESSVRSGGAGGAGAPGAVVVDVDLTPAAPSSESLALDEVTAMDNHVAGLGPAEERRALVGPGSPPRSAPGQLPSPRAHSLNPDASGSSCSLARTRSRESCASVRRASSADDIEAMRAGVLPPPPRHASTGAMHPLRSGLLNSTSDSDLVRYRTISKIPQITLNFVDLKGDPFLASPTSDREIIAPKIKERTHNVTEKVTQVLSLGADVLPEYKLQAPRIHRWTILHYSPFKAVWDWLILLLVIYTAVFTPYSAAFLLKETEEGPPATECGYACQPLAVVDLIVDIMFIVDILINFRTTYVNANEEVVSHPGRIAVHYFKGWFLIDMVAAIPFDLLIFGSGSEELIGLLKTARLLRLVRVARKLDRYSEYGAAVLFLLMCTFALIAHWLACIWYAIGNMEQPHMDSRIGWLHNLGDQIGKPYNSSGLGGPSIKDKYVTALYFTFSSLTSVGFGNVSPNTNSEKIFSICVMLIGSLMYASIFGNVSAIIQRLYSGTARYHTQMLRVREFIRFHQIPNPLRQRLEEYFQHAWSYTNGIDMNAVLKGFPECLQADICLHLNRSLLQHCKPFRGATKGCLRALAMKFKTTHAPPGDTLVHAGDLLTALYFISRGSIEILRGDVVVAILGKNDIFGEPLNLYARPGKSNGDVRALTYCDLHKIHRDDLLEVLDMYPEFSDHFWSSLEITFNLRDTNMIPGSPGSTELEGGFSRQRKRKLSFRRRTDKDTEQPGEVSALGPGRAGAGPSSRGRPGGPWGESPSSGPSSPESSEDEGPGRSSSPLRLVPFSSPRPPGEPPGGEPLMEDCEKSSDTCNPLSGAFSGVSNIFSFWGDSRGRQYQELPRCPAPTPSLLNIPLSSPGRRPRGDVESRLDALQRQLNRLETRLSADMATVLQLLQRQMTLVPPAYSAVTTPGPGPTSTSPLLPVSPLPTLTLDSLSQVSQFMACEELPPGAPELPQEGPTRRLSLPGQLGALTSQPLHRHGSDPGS

hepatocyte CLint [1] [µL/min/1e6 cells]	AUC(0-t) [2] [ng·h/mL]	Cmax [4] [ng/mL]	AUC(0-t) [5] [ng·h/mL]	Cmax [7] [ng/mL]	half-life [8] [h]	microsomal CLint [9] [µL/min/mg]	clearance [10] [mL/min/kg]	solubility kinetic at 4 h [11] [µM]	EC50 [12] [nM]	microsomal CLint [13] [µL/min/mg]	Vd [15] [L/kg]	Vd [17] [L/kg]	AUC(0-t) [18] [ng·h/mL]	bioavailability [19] [%]	Cmax [20] [ng/mL]	microsomal CLint [21] [µL/min/mg]	half-life [23] [h]	bioavailability [24] [%]	SMILES	IC50 [16] [nM]	other results
< 1.9	8390	345	19100	1760	6.2	< 8	6.3	0.2 (≈ 0.105 µg/mL)	4	< 8	3.3	6.8	4050	76	365	< 8	11.5	45	COc1cc(NC(C(=O)c2c[nH]c3cc(OC)c(C)cc23)c2ccc(Cl)cc2OC)cc(OCCO)c1 (single isomer, unassigned; (+))	> 10000	bioavailability [3]: 35%; Activity [6]: Dose-Dependent Effect; Cmax [14]: 83 ng/mL; EC50 [22]: 1 nM; AUC(0-t) [25]: 872 ng·h/mL; bioavailability [26]: 54%; clearance [27]: 6.8 mL/min/kg; Activity [28]: 2.9 log10/ml; EC50 [29]: 26 nM; EC50 ([30]; Dengue virus, H241, Vero): 84 nM
< 1.9	2430	435	6030	1720	2	< 8	16.6	1 (≈ 0.499 µg/mL)	8	9	2	10.1	1410	52	192	32	6.4	69	COc1cc(NC(C(=O)c2c[nH]c3cc(F)ccc23)c2ccc(Cl)cc2OC)cc(OCCO)c1 (single isomer, unassigned; (+))	10000	AUC(0-t) [31]: 29500 ng·h/mL; Cmax [32]: 5100 ng/mL; bioavailability [33]: 85%; bioavailability [26]: 40%; clearance [27]: 46.2 mL/min/kg; Activity [28]: 2 log10/ml; EC50 [29]: 63 nM; EC50 ([30]; vero): 240 nM
